{"source": "patent US20090202451A1", "about": "“ORAL CARE PRODUCT AND METHODS OF USE AND MANUFACTURE THEREOF” (COLGATE-PALMOLIVE COMPANY, priority 2008, published 2009)", "tested_on": "S. sanguis", "test": "Ammonia production by S. sanguis at pH 4.0", "format": "cell-based", "details": "5 millimolar amino acid, 0.1% sucrose, pH 4.0, 37° C., 30 minutes", "procedure": "An overnight culture of S. sanguis was grown at 37° C. in trypticase soy broth (Becton Dickinson, Sparks, Md.). The culture was centrifuged at 5,000 rpm for 5 minutes at 1 milliliter at a time into preweighed tubes in order to accumulate approximately 5 milligrams of wet pellet weight. The pellet was then resuspended into 20 millimolar potassium phosphate buffer (J T Baker, Phillipsburg, N.J.), pH 4.0, to simulate a stressed environment for the bacterial cell where ammonia would be produced for survival. The final concentration was 5 milligram per milliliter. To this final concentration, a 5 millimolar final concentration of L-arginine. L-citrulline, or L-ornithine was added along with a 0.1% final concentration of sucrose (VWR, West Chester, Pa.). This mixture was then incubated at 37° C. in a shaking water bath for 30 minutes before ammonia production was determined.\nIn order to analyze for ammonia, an Ammonia Assay kit was used from Diagnostic Chemicals Limited (Oxford, Conn.). The intended use of this specific kit is for the in vitro quantification of ammonia in plasma, but the procedure was modified in order to determine and quantify the ammonia production in plaque and/or bacteria."}
{"smiles": "N=C(N)NCCC[C@H](N)C(=O)O", "note": "[L-Arginine, L-arginine]", "values": [{"measurement": "Ammonia", "setting": "Trial 3", "value": 2.20, "unit": "ppm"}, {"measurement": "Ammonia", "setting": "Trial 5", "value": 0.5, "unit": "ppm"}]}
